From ChEMBL document CHEMBL1133802, “N,N'-bis[4-(N-alkylamidino)phenyl]homopiperazines as anti-Pneumocystis carinii agents” (2001)

What was measured:
Nucleic Acid = assay: Binding affinity for calf thymus DNA measured as change in melting temperature; format: nucleic-acid assay; conditions: Bos taurus
Pneumocystis carinii [1] = assay: Anti-P. carinii activity determined as change in number of Pneumocystis carinii trophozoites from day 1 through day 7 in culture at 1 uM; format: functional
Pneumocystis carinii [2] = assay: Percent of control growth of Pneumocystis carinii trophozoites was determined; format: functional; parameters: concentration or dose not given beside the values
[3] = Binding affinity for Poly (dA-dT) measured as change in melting temperature
Pneumocystis carinii [4] = assay: Anti-P. carinii activity determined as change in number of Pneumocystis carinii trophozoites from day 1 through day 5 in culture at 1 uM; format: functional

SMILES | ΔTm (Nucleic Acid) | ΔTm [3] | Change in No. of trophozoites x 10E-5 (Pneumocystis carinii [1]) | Growth (Pneumocystis carinii [2]) | Change in No. of trophozoites x 10E-5 (Pneumocystis carinii [4])
COc1cc(Cc2cnc(N)nc2N)cc(OC)c1OC.Cc1cc(NS(=O)(=O)c2ccc(N)cc2)no1 [CO-TRIMOXAZOLE] | – | – | – | <0% | –
c1cc(N2CCCN(c3ccc(C4=NCCCN4)cc3)CC2)ccc1C1=NCCCN1 | 15.5 °C | 21.3 °C | 10.73 | 32% | –
CC(C)/N=C(\N)c1ccc(N2CCCN(c3ccc(/C(N)=N/C(C)C)cc3)CC2)cc1 | 13.8 °C | 20 °C | 20.2 | 61% | –
N=C(N)c1ccc(OCCCCCOc2ccc(C(=N)N)cc2)cc1 [PENTAMIDINE] | 11.1 °C | 20.6 °C | – | <0% | -3.98
N=C(NC1CCCC1)c1ccc(N2CCCN(c3ccc(C(=N)NC4CCCC4)cc3)CC2)cc1 | 17.9 °C | 26.5 °C | 34.32 | 103% | –
N=C(NCCCO)c1ccc(N2CCCN(c3ccc(/C(N)=N/CCCO)cc3)CC2)cc1 | 17.4 °C | 23.6 °C | 34.79 | 105% | –

The next lines start with results.

ΔTm (Nucleic Acid) | ΔTm [3] | SMILES | Change in No. of trophozoites x 10E-5 (Pneumocystis carinii [1]) | Growth (Pneumocystis carinii [2]) | Change in No. of trophozoites x 10E-5 (Pneumocystis carinii [4])
11.8 °C | 13.3 °C | CCCCNC(=N)c1ccc(N2CCCN(c3ccc(C(=N)NCCCC)cc3)CC2)cc1 | 19.19 | 58% | –
4.1 °C | 7.4 °C | CC(C)(C)/N=C(\N)c1ccc(N2CCCN(c3ccc(/C(N)=N/C(C)(C)C)cc3)CC2)cc1 | 21.57 | 65% | –
15.3 °C | 23.6 °C | N=C(NC1CC1)c1ccc(N2CCCN(c3ccc(C(=N)NC4CC4)cc3)CC2)cc1 | 10.92 | 33% | –
11.1 °C | 14.7 °C | N=C(NCCO)c1ccc(N2CCCN(c3ccc(/C(N)=N/CCO)cc3)CC2)cc1 | 33.62 | 101% | –
15 °C | 23.1 °C | N=C(N)c1ccc(N2CCCN(c3ccc(C(=N)N)cc3)CC2)cc1 | – | <0% | -3.32
